# Experimental data: patent US20180117082A1, “ANTIFUNGAL COMPOSITION/TREATMENT” (THE UNIVERSITY OF NOTTINGHAM, priority 2015, published 2018)
# Legend:
# R. solani = assay: Growth inhibition assay in PDB medium (OD600); settings: same concentrations as in the combinations (FIG. 6, FIG. 7)
# Method: (§1) Candida spp. or S. cerevisiae were inoculated from YEPD plates to YEPD broth (composition as above, minus agar) and cultured overnight at 30° C., 120 rev min^−1. Overnight cultures were diluted to OD600˜0.5 and cultured for a further 4 h in fresh YEPD before dilution of these experimental cultures to OD600˜0.01 or ˜0.1 in the same medium. Aliquots (300 μl) of the diluted culture plus any chemical supplements (see above), as specified, were transferred to 48-well plates (Greiner Bio-One). OD600 was monitored continuously in a BioTek Powerwave-XS microplate spectrophotometer, with shaking at 30 C. […] Spores of R. solani or Z. tritici were inoculated from PDA plates to potato dextrose broth (PDB; Fluka) (20,000 spores ml^−1). Aliquots (150 μl) of the diluted culture plus any chemical supplements, as specified, were transferred to 96-well plates (Greiner Bio-one) and cultured over 8 d at 24° C., 120 rev min-1. OD600 was monitored every day in a BioTek EL800 microplate spectrophotometer.
# Zygosaccharomyces bailii = assay: Growth inhibition assay on solid medium, spotted serial dilutions; type: cell-based; settings: same concentrations as in the combinations, each agent alone (FIG. 2A)
# Description: Images were captured after 2 d (YEPD) or 3 d (YNB) growth at 30 C. For growth-inhibition assays on solid medium with R. solani, circular sections of ˜0.5 cm diameter were excised from cultures on PDA and transferred to the centre of fresh plates. Images were captured after 3 d growth at 28 C and the total mycelial area determined using ImageJ and GIMP2 software. Where specified, chemical supplements were included in the solid media.
# Candida albicans = assay: Growth inhibition assay in YEPD broth (OD600); type: cell-based; settings: 25 μM chromate, 200 μg ml^−1 paromomycin or 10 μg ml^−1 hygromycin, each alone (FIG. 1A)
# Method: as §1
# Rhizoctonia solani = assay: Growth inhibition assay on solid medium (PDA agar), mycelial outgrowth; type: cell-based; settings: 300 μg ml^−1 paromomycin or 15 mM molybdate alone (FIG. 2B)
# Method: For qualitative growth-inhibition assays with yeasts on solid medium, experimental cultures prepared as described above were adjusted to OD600˜2.0, 0.2, 0.02, 0.002, 0.0002 and the dilution series spotted (4 μl) on to either YEPD agar (above) or yeast nitrogen base (YNB) agar: 0.69% (w/v) yeast nitrogen base without amino acids (Formedium; Norfolk, UK) supplemented with 2% (w/v) D-glucose, 0.06 mg ml^−1 leucine, 0.02 mg ml^−1 histidine, 0.02 mg ml^−1 uracil and 2% (w/v) bacteriological agar (Sigma-Aldrich). Images were captured after 2 d (YEPD) or 3 d (YNB) growth at 30 C. For growth-inhibition assays on solid medium with R. solani, circular sections of ˜0.5 cm diameter were excised from cultures on PDA and transferred to the centre of fresh plates. Images were captured after 3 d growth at 28 C and the total mycelial area determined using ImageJ and GIMP2 software. Where specified, chemical supplements were included in the solid media.
SMILES,"inhibitory effect, agent individually (R. solani)","effect on growth, agent alone (Zygosaccharomyces bailii)","inhibitory effect on growth, agent alone (Candida albicans)","growth-inhibitory effect, agent alone (Rhizoctonia solani)"
CCC[C@H](N)C(=O)O [norvaline],none of these agents had an inhibitory effect individually,–,–,–
"O=S(=O)(O)c1cc(N=C=S)ccc1C=Cc1ccc(N=C=S)cc1S(=O)(=O)O [DIDS, 4,4′-diisothio-cyanotostilbene-2,2′-disulphonate]",–,neither agent alone had a significant effect on growth,–,–
O=[Se](=O)(O)O [selenate],none of these agents had an inhibitory effect individually,–,–,–
[Cu] [copper],none of these agents had an inhibitory effect individually,–,–,–
NC[C@@H]1O[C@H](O[C@H]2[C@@H](O)[C@H](O[C@@H]3[C@@H](O)[C@H](N)C[C@H](N)[C@H]3O[C@H]3O[C@H](CO)[C@@H](O)[C@H](O)[C@H]3N)O[C@@H]2CO)[C@H](N)[C@@H](O)[C@@H]1O [paromomycin],–,neither agent alone had a significant effect on growth,no discernible inhibitory effect,neither agent alone had a marked growth-inhibitory effect
[O]=[Mo](=[O])([O-])[O-] [molybdate],–,neither agent alone had a significant effect on growth,–,neither agent alone had a marked growth-inhibitory effect
CN(C)C(=S)SSC(=S)N(C)C [thiram],none of these agents had an inhibitory effect individually,–,–,–
